Measurements from patent US20260250257A1, “ANTIBACTERIAL AND SYNERGISTIC ACTIVE COMPOUND AND USE THEREOF” (EAST CHINA UNIVERSITY OF SCIENCE AND TECHNOLOGY, priority 2023, published 2026).

What follows are compounds tested on ATCC25922 strain (Escherichia coli) (assay: Broth microdilution, antibacterial activity of the compound used alone). Details: not given.
Type: cell-based
From the text: (§1) The broth microdilution method was used to test the antibacterial effects of the compounds of the present invention against various Gram-negative bacterial strains when used alone.

SMILES	Antibacterial activity of the compound of Formula I, ATCC25922 [µg/mL]
NC(N)=Nc1nc(-c2c(F)cccc2-c2nccs2)cs1 [Compound I-80]	256
NC(N)=Nc1nc(-c2cccc3ncsc23)co1 [Compound I-71]	256
NC(N)=Nc1nc(-c2cccc3ccsc23)c[nH]1 [Compound I-69]	256
NC(N)=Nc1nc(-c2cccc3cccnc23)co1 [Compound I-67]	256
NC(N)=Nc1nc(-c2ccccc2[N+](=O)[O-])c[nH]1 [Compound I-20]	256
CSc1cc2cccc(C)n2c1-c1csc(N=C2NCCCN2)n1 [Compound I-194]	128
Fc1cc(Oc2ccc(Cl)cc2Cl)cc(-c2csc(N=C3NCCCN3)n2)c1 [Compound I-161]	256
NC(N)=Nc1nc(-c2cc(Cl)cc3c2Cc2ccc(Cl)cc2-3)cs1 [Compound I-116]	256
Clc1cccc(-c2csc(N=C3NCCCN3)n2)c1Cl [Compound I-184]	256

These compounds were tested on ATCC9027 strain (Pseudomonas aeruginosa) in the same assay as above. Details: not given.
Type: cell-based
From the text: as §1

SMILES	Antibacterial activity of the compound of Formula I, ATCC9027 [µg/mL]
NC(N)=Nc1nc(-c2c(F)cccc2-c2nccs2)cs1 [Compound I-80]	256
NC(N)=Nc1nc(-c2cccc3ncsc23)co1 [Compound I-71]	256
NC(N)=Nc1nc(-c2cccc3ccsc23)c[nH]1 [Compound I-69]	256
NC(N)=Nc1nc(-c2cccc3cccnc23)co1 [Compound I-67]	256
NC(N)=Nc1nc(-c2ccccc2[N+](=O)[O-])c[nH]1 [Compound I-20]	256
CSc1cc2cccc(C)n2c1-c1csc(N=C2NCCCN2)n1 [Compound I-194]	64
Fc1cc(Oc2ccc(Cl)cc2Cl)cc(-c2csc(N=C3NCCCN3)n2)c1 [Compound I-161]	256
NC(N)=Nc1nc(-c2cc(Cl)cc3c2Cc2ccc(Cl)cc2-3)cs1 [Compound I-116]	256
Clc1cccc(-c2csc(N=C3NCCCN3)n2)c1Cl [Compound I-184]	256

What follows are compounds tested on ATCC19606 strain (Acinetobacter baumannii) in the same assay as above. Details: not given.
Type: cell-based
From the text: as §1

SMILES	Antibacterial activity of the compound of Formula I, ATCC19606 [µg/mL]
NC(N)=Nc1nc(-c2c(F)cccc2-c2nccs2)cs1 [Compound I-80]	256
NC(N)=Nc1nc(-c2cccc3ncsc23)co1 [Compound I-71]	256
NC(N)=Nc1nc(-c2cccc3ccsc23)c[nH]1 [Compound I-69]	256
NC(N)=Nc1nc(-c2cccc3cccnc23)co1 [Compound I-67]	256
NC(N)=Nc1nc(-c2ccccc2[N+](=O)[O-])c[nH]1 [Compound I-20]	256
CSc1cc2cccc(C)n2c1-c1csc(N=C2NCCCN2)n1 [Compound I-194]	256
Fc1cc(Oc2ccc(Cl)cc2Cl)cc(-c2csc(N=C3NCCCN3)n2)c1 [Compound I-161]	256
NC(N)=Nc1nc(-c2cc(Cl)cc3c2Cc2ccc(Cl)cc2-3)cs1 [Compound I-116]	256
Clc1cccc(-c2csc(N=C3NCCCN3)n2)c1Cl [Compound I-184]	256

What follows are compounds tested on ATCC13883 strain (Klebsiella pneumoniae) in the same assay as above. Details: not given.
Type: cell-based
From the text: as §1

SMILES	Antibacterial activity of the compound of Formula I, ATCC13883 [µg/mL]
NC(N)=Nc1nc(-c2c(F)cccc2-c2nccs2)cs1 [Compound I-80]	256
NC(N)=Nc1nc(-c2cccc3ncsc23)co1 [Compound I-71]	256
NC(N)=Nc1nc(-c2cccc3ccsc23)c[nH]1 [Compound I-69]	256
NC(N)=Nc1nc(-c2cccc3cccnc23)co1 [Compound I-67]	256
NC(N)=Nc1nc(-c2ccccc2[N+](=O)[O-])c[nH]1 [Compound I-20]	256
CSc1cc2cccc(C)n2c1-c1csc(N=C2NCCCN2)n1 [Compound I-194]	128
Fc1cc(Oc2ccc(Cl)cc2Cl)cc(-c2csc(N=C3NCCCN3)n2)c1 [Compound I-161]	256
NC(N)=Nc1nc(-c2cc(Cl)cc3c2Cc2ccc(Cl)cc2-3)cs1 [Compound I-116]	256
Clc1cccc(-c2csc(N=C3NCCCN3)n2)c1Cl [Compound I-184]	256

These compounds were tested on ATCC25922 strain (Escherichia coli) (assay: Checkerboard antibacterial synergistic activity test with polymyxin E (FIC)). Details: combined with polymyxin E.
Type: cell-based
Set-up: key: FIC≤0.5 synergy; 0.5–1 additive; 1–2 indifferent; ≥2 antagonism
Method: (§2) Polymyxin E was diluted in sterile MH broth medium to concentrations of 16, 8, 4, 2, 1, 0.5, 0.25, 0.125, 0.0625, 0.031, and 0.015 μg/ml, and the drug to be tested was diluted to concentrations of 256, 128, 64, 32, 16, 8, and 4 μg/ml. According to the checkerboard method, combinations of the drug to be tested and polymyxin at different concentrations in ascending order were placed into a 96-well plate, and corresponding blank control groups were set up. 50 μl of the drug solution was added to each well, then 100 μl of bacterial liquid was added, and incubated in a 37° C. incubator for 16 hours. […] Calculation and judgment criteria:
(§3) Fractional Inhibitory Concentration (FIC) is calculated as follows: […]
(§4) Judgment criteria: FIC≤0.5: synergistic effect; 0.5<FIC<1: additive effect; 1<FIC<2: indifferent effect; FIC≥2: antagonistic effect.
(§5) In the table: ATCC19606 strain is Acinetobacter baumannii, ATCC25922 strain is Escherichia coli, ATCC13883 strain is Klebsiella pneumoniae, ATCC9027 strain is Pseudomonas aeruginosa. All four strains were purchased from ATCC.

SMILES	Synergistic activity (FIC value) ATCC25922
NC(N)=Nc1nc(-c2c(F)cccc2-c2nccs2)cs1 [Compound I-80]	0.63
NC(N)=Nc1nc(-c2cccc3ncsc23)co1 [Compound I-71]	0.52
NC(N)=Nc1nc(-c2cccc3ccsc23)c[nH]1 [Compound I-69]	1.25
NC(N)=Nc1nc(-c2cccc3cccnc23)co1 [Compound I-67]	0.63
NC(N)=Nc1nc(-c2ccccc2[N+](=O)[O-])c[nH]1 [Compound I-20]	0.5
CSc1cc2cccc(C)n2c1-c1csc(N=C2NCCCN2)n1 [Compound I-194]	0.5
Fc1cc(Oc2ccc(Cl)cc2Cl)cc(-c2csc(N=C3NCCCN3)n2)c1 [Compound I-161]	0.14
NC(N)=Nc1nc(-c2cc(Cl)cc3c2Cc2ccc(Cl)cc2-3)cs1 [Compound I-116]	0.5
Clc1cccc(-c2csc(N=C3NCCCN3)n2)c1Cl [Compound I-184]	0.5

What follows are compounds tested on ATCC9027 strain (Pseudomonas aeruginosa) in the same assay as above. Details: combined with polymyxin E.
Type: cell-based
Set-up: key: FIC≤0.5 synergy; 0.5–1 additive; 1–2 indifferent; ≥2 antagonism
Method: as §2, §3, §4, §5

SMILES	Synergistic activity (FIC value) ATCC9027
NC(N)=Nc1nc(-c2c(F)cccc2-c2nccs2)cs1 [Compound I-80]	1.25
NC(N)=Nc1nc(-c2cccc3ncsc23)co1 [Compound I-71]	1.25
NC(N)=Nc1nc(-c2cccc3ccsc23)c[nH]1 [Compound I-69]	0.51
NC(N)=Nc1nc(-c2cccc3cccnc23)co1 [Compound I-67]	1.25
NC(N)=Nc1nc(-c2ccccc2[N+](=O)[O-])c[nH]1 [Compound I-20]	0.56
CSc1cc2cccc(C)n2c1-c1csc(N=C2NCCCN2)n1 [Compound I-194]	0.63
Fc1cc(Oc2ccc(Cl)cc2Cl)cc(-c2csc(N=C3NCCCN3)n2)c1 [Compound I-161]	0.06
NC(N)=Nc1nc(-c2cc(Cl)cc3c2Cc2ccc(Cl)cc2-3)cs1 [Compound I-116]	1.25
Clc1cccc(-c2csc(N=C3NCCCN3)n2)c1Cl [Compound I-184]	0.63

The compounds below were run on ATCC19606 strain (Acinetobacter baumannii) in the same assay as above. Details: combined with polymyxin E.
Type: cell-based
Set-up: key: FIC≤0.5 synergy; 0.5–1 additive; 1–2 indifferent; ≥2 antagonism
Method: as §2, §3, §4, §5

SMILES	Synergistic activity (FIC value) ATCC19606
NC(N)=Nc1nc(-c2c(F)cccc2-c2nccs2)cs1 [Compound I-80]	0.52
NC(N)=Nc1nc(-c2cccc3ncsc23)co1 [Compound I-71]	0.13
NC(N)=Nc1nc(-c2cccc3ccsc23)c[nH]1 [Compound I-69]	1.25
NC(N)=Nc1nc(-c2cccc3cccnc23)co1 [Compound I-67]	0.5
NC(N)=Nc1nc(-c2ccccc2[N+](=O)[O-])c[nH]1 [Compound I-20]	0.75
CSc1cc2cccc(C)n2c1-c1csc(N=C2NCCCN2)n1 [Compound I-194]	1.25
Fc1cc(Oc2ccc(Cl)cc2Cl)cc(-c2csc(N=C3NCCCN3)n2)c1 [Compound I-161]	0.31
NC(N)=Nc1nc(-c2cc(Cl)cc3c2Cc2ccc(Cl)cc2-3)cs1 [Compound I-116]	0.25
Clc1cccc(-c2csc(N=C3NCCCN3)n2)c1Cl [Compound I-184]	0.28

Each compound was assayed on ATCC13883 strain (Klebsiella pneumoniae) in the same assay as above. Details: combined with polymyxin E.
Type: cell-based
Set-up: key: FIC≤0.5 synergy; 0.5–1 additive; 1–2 indifferent; ≥2 antagonism
Method: as §2, §3, §4, §5

SMILES	Synergistic activity (FIC value) ATCC13883
NC(N)=Nc1nc(-c2c(F)cccc2-c2nccs2)cs1 [Compound I-80]	0.52
NC(N)=Nc1nc(-c2cccc3ncsc23)co1 [Compound I-71]	0.19
NC(N)=Nc1nc(-c2cccc3ccsc23)c[nH]1 [Compound I-69]	1.25
NC(N)=Nc1nc(-c2cccc3cccnc23)co1 [Compound I-67]	1.25
NC(N)=Nc1nc(-c2ccccc2[N+](=O)[O-])c[nH]1 [Compound I-20]	0.63
CSc1cc2cccc(C)n2c1-c1csc(N=C2NCCCN2)n1 [Compound I-194]	1.25
Fc1cc(Oc2ccc(Cl)cc2Cl)cc(-c2csc(N=C3NCCCN3)n2)c1 [Compound I-161]	0.09
NC(N)=Nc1nc(-c2cc(Cl)cc3c2Cc2ccc(Cl)cc2-3)cs1 [Compound I-116]	0.63
Clc1cccc(-c2csc(N=C3NCCCN3)n2)c1Cl [Compound I-184]	0.25
